Series [1] relates to L6 myotube cells. Nature of the series: Glucose intake by L6 myotube cells (decrease of glucose in culture solution). Format: cell-based, rat. The settings on record: nepodin 10 to 40 μM, 4 hours, versus medium without nepodin. The method, then:
L6 myoblast cells were suspended at concentration of 12.5×10^4 cells/mL in a D-MEM medium with 5.5 mM of glucose concentration to which 10% v/v fetal bovine serum, 100 μg/mL of streptomycin, and 100 U/mL of penicillin G were added.
The cells were inoculated at the concentration 5×10^4 cells/well (0.4 mL/well) in 24 well multi-plate (NUNC Co., Inc.); then cultured in a 5% CO2 incubator at 37° C. for 11 days. The medium was exchanged every 3 days.
After 11 days, the culture medium was replaced with filter sterilized Krebs solution (Krebs-Henseleit buffer; pH 7.4, 141 mg/L of MgSO4, […] of KH2PO4, 350 mg/L of KCL, 6,900 mg/L of NaCl, 373 mg/L of CaCl2.2H2O, and 2,100 mg/L of NaHCO3) (KHH buffer) supplemented with 0.1% bovine serum albumin, 10 mM of Hepes, and […] of pyruvate sodium but without glucose to maintain the cells in the 5% CO2 incubator at 37° C. for 2 hours.
Next, each KHH buffer was prepared: only 11 mM glucose was added, or 11 mM of glucose and nepodin (10 μM, 20 μM, or 40 μM). […]
Glucose concentrations in the culture solution at the beginning and after 4 hours from the culture start were determined by using a microplate reader (Beckman Coulter, Inc. AD200) and a glucose determination kit (Glucose CII test Wako (Wako Pure Chemical Industries, Ltd.), Catalog number 439-90901). […]

In series [2] the test system is AMPK (5′ adenosine monophosphate-activated protein kinase). Kind of series: Phosphorylated AMPK in L6 myotube cells by western blotting. Format: cell-based, rat. The settings on record: nepodin 30 μM, up to 120 minutes. How it is done:
The effect of nepodin administration was decided by determining the amount of a phospholylated AMPK (5′ adenosine monophosphate-activated protein kinase), which was important for glucose metabolism in L6 myotube cells, as an activation index.
L6 myoblast cells were suspended in D-MEM (5.5 mM of glucose concentration) supplemented with 10% v/v fetal bovine serum, 100 μg/mL of streptomycin, and 100 U/mL of penicillin G so as to become the cell concentration at 12.5×10^4 cells/well.
L6 myoblast cells were inoculated into a 6 cm diameter dish (FALCON Co., Inc.) (2 mL/well) so as to become the concentration at 5×10^5 cells/well, and cultured in the 5% CO2 incubator at 37° C. for 11 days. The medium was exchanged every 3 days. […]
The negative control samples were prepared by using the cytolytic buffer to be added to the cells cultured with the medium including DMSO, the solvent of nepodin, at the same amount as nepodin. The negative control sample and the samples were separated by using SDS-PAGE according to the conventional method, and were analyzed by using anti-phosphorylated AMPK antibody and anti-AMPK antibody by the western blotting.

The test system of series [3] is db/db diabetes model mouse. Nature of the series: Fasting blood glucose of diabetes model mice. Format: in vivo. The settings on record: 4 hour fasting, 2 to 4 weeks after administration start, versus no nepodin. How it is done: Effect of nepodin was evaluated by using fasting blood glucose of model mice (db/db mouse) having diabetes II as an index.
Nepodin was suspended in 0.5% carboxymethylcellulose aqueous solution (Wako Pure Chemical Industries, Ltd.). Male mice of 5 week old, BKS. Cg-+Lerp^db/+Lerp^db/J mouse (db/db diabetes model mouse, hereinafter, it is referred to as “diabetes model mouse”) for a test group (nepodin administration group) were purchased from Charles River Laboratories Japan Inc. Prior to the test, they were maintained for 1 week under the condition of 12 h light/12 h dark at a room temperature approximately 25° C., feeding normal diet. It is considered that db/db mouse also becomes a model for a metabolic syndrome model, because it is obese and has higher levels of variety of lipid.
Heterozygous male mice of 5 week old, BKS. Cg-+Dock 7^m/+Lerp^db/J mouse (normal mouse) for a negative control group (without nepodin administration) were purchased from Charles River Japan Inc. Prior to the test, they were maintained as the same condition as those of the test group. […]
Blood samples were obtained from the tail vein of the mice after 4 hour fasting per week. The blood glucose level was measured by using Glucose CII test Wako (Wako Pure Chemical Industries, Ltd.)

The nature of series [4]: Feed intake and body weight gain of diabetes model mice. The settings on record: for Weight gain / Feed intake: diabetes mice. Format: in vivo, mouse. The method, then:
Nepodin was suspended in 0.5% carboxymethylcellulose aqueous solution (Wako Pure Chemical Industries, Ltd.). Male mice of 5 week old, BKS. Cg-+Lerp^db/+Lerp^db/J mouse (db/db diabetes model mouse, hereinafter, it is referred to as “diabetes model mouse”) for a test group (nepodin administration group) were purchased from Charles River Laboratories Japan Inc. Prior to the test, they were maintained for 1 week under the condition of 12 h light/12 h dark at a room temperature approximately 25° C., feeding normal diet. It is considered that db/db mouse also becomes a model for a metabolic syndrome model, because it is obese and has higher levels of variety of lipid. The test group mice were divided into 3 groups: C group (positive control group; n=10) with no nepodin administration; A group (n=6) to which nepodin was administered at the dose of 2 mg/kg/day or 10 mg/kg/day for 5 weeks; and B group (n=6). 0.5% carboxymethylcellulose aqueous solution without nepodin was administered to the negative control group (N group; n=6) and the positive control group (C group) under the same conditions as described above. Feeds and water are freely given to each group.

Series [5] concerns db/db diabetes model mouse. Kind of series: Intraperitoneal glucose tolerance test (IPGTT) in diabetes model mice. Format: in vivo. How it is done:
Effect on glucose tolerance by nepodin administration was measured by using blood glucose level change after the intraperitoneal administration of nepodin to the diabetes model mice.
Intraperitoneal glucose tolerance test (IPGTT) was performed on the sixth week after nepodin administration start. At first, the mice of each group were fasted for 16 hours, and then, glucose was intraperitoneally administrated to each mouse at the dose of 2 g/kg.
Blood samples were obtained from the tail vain of each mouse at the time point of 0 min., 30 min., 60 min., 90 min., 120 min., and 180 min. after the glucose administration. Blood glucose level was determined by using Glucose CII Test Wako (Wako Pure Chemical Industries, Ltd.)

Series [6] has as its system db/db diabetes model mouse. Nature of the series: HOMA-IR insulin resistance index in diabetes model mice. Format: in vivo. The settings on record: groups A and B (2 and 10 mg/kg/day) versus group C. How it is done:
(§1) After the termination of the experiment shown in EXAMPLE 4, the blood samples were obtained from the abdominal aorta of the mice from each group under anesthesia, and they were centrifuged with 1,000×g at room temperature to obtain serum samples. After that, the mice of each group were killed by cervical dislocation to put out of the misery; then organs were excised to use the following experiments.
Serum insulin level of Lewi's insulin-mouse-T (Shibayagi Co., Ltd.) was determined by ELISA (measurement at the wavelengths of 450 nm and 620 nm), according to protocols written in its package insert.
HOMA-IR (Homeostasis model assessment-Insulin Resistance), which is an index of the insulin resistance, was calculated based on data on both blood glucose and serum insulin, by using following equation. HOMA-IR=(blood glucose×insulin level)/405 (1)
HOMA-IR values were obtained from both levels of serum blood glucose and serum insulin of the mice in group N (the normal mice), the administration groups A, B, and C. They were used to investigate for the change of the insulin resistant index.

The test system of series [7] is db/db diabetes model mouse. Nature of the series: Liver and serum neutral lipid and cholesterol levels in diabetes model mice. Format: in vivo.
Source text: as §1
Livers from the mice of each group were homogenized and total lipid was extracted by using Folch method. Both amounts of neutral lipid and cholesterol in the liver were determined by using LabAssat Tiglyceride (Wako Pure Chemical Industries, Ltd.) and LabAssay Cholesterol (Wako Pure Chemical Industries, Ltd.) Results are shown in FIGS. 7A and 7B.
The serum neutral lipid (triglyceride) level was determined by using LabAssay Triglyceride (Wako Pure Chemical Industries, Ltd.). The serum cholesterol level was determined by using LabAssay Cholesterol (Wako Pure Chemical Industries, Ltd.).

For series [8], the system named is db/db diabetes model mouse. Kind of series: Serum TBARS value (anti-oxidizing action) in diabetes model mice. The settings on record: groups A and B versus group C. Format: in vivo. How it is done:
as §1
TBARS value, an index for anti-oxidizing action, was determined by using a TBARS Assay Kit (ZeptoMetrix Co., Inc.).

[9] abbreviates: nepodin administration groups versus diabetes model group with no administration.

The values below come from patent publication US8692023B2, “Sugar metabolism improving composition, and pharmaceutical preparation containing said composition” (Erina Co., Inc., priority 2010, dated 2014).

For `CC(=O)c1c(C)cc2cccc(O)c2c1O` [nepodin, 2-Acetyl-1,8-dihydroxy-3-methyl-napthalene], the “glucose intake by L6 myotube cells” value in series [1] is recorded as “dose-dependently improved”. Besides, the “Phosphorylated AMPK in L6 myotube cells” value in series [2] is listed as “increased”. In addition, the “fasting blood glucose level” value in series [3] was “significantly lower”. The molecule also had a Weight gain in series [4] (group A, nepodin 2 mg/kg/day) of 18.7 ± 1.76 g/5 weeks. This molecule returned a Feed intake in series [4] (group A, nepodin 2 mg/kg/day for 5 weeks) of 5.26 ± 0.61 g/day. Moreover, the Weight gain in series [4] (group B, nepodin 10 mg/kg/day) was 19.45 ± 2.68 g/5 weeks. The same molecule showed a Feed intake in series [4] (group B, nepodin 10 mg/kg/day for 5 weeks) of 5.40 ± 0.50 g/day. The “average amount of feed intake and body weight gain versus C group” value in series [4] (diabetes model mice, A group and B group (2 or 10 mg/kg/day) versus no nepodin) is listed as “no significant difference”. Also, the “area under the curve (AUC) of blood glucose levels” value in series [5] (B group (10 mg/kg), AUC of C group = 100%, p<0.01) is listed as “significantly low”. For the same molecule, the “increase of the blood glucose level after glucose load” value in series [5] (B group, 10 mg/kg nepodin, sixth week, glucose 2 g/kg i.p. after 16 hours fasting) is “significantly suppressed”. The HOMA-IR entry in series [6] was “significantly lower”. Further, in series [7] (groups A and B versus group C), the “cholesterol level in the liver” value is given as “significantly lower” and the “neutral lipid level in the liver” value is given as “significantly lower”. In series [7] (setting [9]), the serum cholesterol level result is “significantly lower” and the “serum neutral lipid (triglyceride) level” value was “significantly lower”. In addition, the “serum TBARS value” in series [8] is given as “significantly lower”.
